Data published in article PMC8799717, “Pharmacological targeting PIKfyve and tubulin as an effective treatment strategy for double-hit lymphoma” (Cell Death Discovery, 2022).

Tests used:
Assay in all cases: biochemical
Design in all cases: KINOMEscan active-site-directed competition binding panel, 468 kinases, percent of DMSO control at 1 uM
Conditions in all cases: KINOMEscan binding, percent of DMSO control; read-out: Ctrl%
SNRK = SNRK (Homo sapiens, UniProt Q9NRH2)
MRCKA = biological target: T1, MRCKA (Homo sapiens, UniProt Q5VT25)
T1 construct: gene CDC42BPA

RET(V804M) = RET(V804M) (Homo sapiens, UniProt P07949, V804M)
SRMS = SRMS (Homo sapiens, UniProt Q9H3Y6)
CAMK2A = CAMK2A (Homo sapiens, UniProt Q9UQM7)
Chain of CAMK2A (Q9UQM7 whole entry): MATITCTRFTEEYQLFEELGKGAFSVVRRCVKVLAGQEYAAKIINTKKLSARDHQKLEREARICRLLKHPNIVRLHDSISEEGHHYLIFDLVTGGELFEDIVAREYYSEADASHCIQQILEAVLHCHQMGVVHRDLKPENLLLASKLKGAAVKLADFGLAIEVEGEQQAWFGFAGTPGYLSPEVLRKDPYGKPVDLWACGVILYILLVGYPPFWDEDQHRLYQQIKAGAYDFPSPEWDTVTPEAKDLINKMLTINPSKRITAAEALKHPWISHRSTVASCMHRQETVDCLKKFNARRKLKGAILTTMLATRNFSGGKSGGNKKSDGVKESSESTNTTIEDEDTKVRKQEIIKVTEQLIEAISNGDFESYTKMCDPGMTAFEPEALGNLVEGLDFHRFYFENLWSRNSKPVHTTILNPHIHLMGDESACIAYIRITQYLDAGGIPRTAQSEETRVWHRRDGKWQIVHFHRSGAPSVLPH

HIPK1 = HIPK1 (Homo sapiens, UniProt Q86Z02)
NEK6 = NEK6 (Homo sapiens, UniProt Q9HC98)
Chain of NEK6 (Q9HC98 whole entry): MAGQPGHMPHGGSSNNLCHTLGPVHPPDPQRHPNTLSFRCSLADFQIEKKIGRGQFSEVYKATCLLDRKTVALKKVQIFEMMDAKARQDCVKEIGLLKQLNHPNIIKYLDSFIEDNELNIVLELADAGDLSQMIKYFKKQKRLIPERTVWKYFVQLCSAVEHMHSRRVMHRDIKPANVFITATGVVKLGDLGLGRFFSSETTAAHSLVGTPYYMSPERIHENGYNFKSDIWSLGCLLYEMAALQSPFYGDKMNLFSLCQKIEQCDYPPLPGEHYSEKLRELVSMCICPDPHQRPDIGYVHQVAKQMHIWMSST

MARK2 = MARK2 (Homo sapiens, UniProt Q7KZI7)
PRKR = biological target: T2, PRKR (Homo sapiens, UniProt P19525)
T2 construct: gene EIF2AK2

RIPK2 = RIPK2 (Homo sapiens, UniProt O43353)
PRKCE = PRKCE (Homo sapiens, UniProt Q02156)
[1] = biological target: EGFR(L747-E749del, A750P) (Homo sapiens, UniProt P00533, A750P/DEL747-749)
Chain of EGFR(L747-E749del, A750P) (P00533 with tags, fused parts or gaps DEL747-749/A750P): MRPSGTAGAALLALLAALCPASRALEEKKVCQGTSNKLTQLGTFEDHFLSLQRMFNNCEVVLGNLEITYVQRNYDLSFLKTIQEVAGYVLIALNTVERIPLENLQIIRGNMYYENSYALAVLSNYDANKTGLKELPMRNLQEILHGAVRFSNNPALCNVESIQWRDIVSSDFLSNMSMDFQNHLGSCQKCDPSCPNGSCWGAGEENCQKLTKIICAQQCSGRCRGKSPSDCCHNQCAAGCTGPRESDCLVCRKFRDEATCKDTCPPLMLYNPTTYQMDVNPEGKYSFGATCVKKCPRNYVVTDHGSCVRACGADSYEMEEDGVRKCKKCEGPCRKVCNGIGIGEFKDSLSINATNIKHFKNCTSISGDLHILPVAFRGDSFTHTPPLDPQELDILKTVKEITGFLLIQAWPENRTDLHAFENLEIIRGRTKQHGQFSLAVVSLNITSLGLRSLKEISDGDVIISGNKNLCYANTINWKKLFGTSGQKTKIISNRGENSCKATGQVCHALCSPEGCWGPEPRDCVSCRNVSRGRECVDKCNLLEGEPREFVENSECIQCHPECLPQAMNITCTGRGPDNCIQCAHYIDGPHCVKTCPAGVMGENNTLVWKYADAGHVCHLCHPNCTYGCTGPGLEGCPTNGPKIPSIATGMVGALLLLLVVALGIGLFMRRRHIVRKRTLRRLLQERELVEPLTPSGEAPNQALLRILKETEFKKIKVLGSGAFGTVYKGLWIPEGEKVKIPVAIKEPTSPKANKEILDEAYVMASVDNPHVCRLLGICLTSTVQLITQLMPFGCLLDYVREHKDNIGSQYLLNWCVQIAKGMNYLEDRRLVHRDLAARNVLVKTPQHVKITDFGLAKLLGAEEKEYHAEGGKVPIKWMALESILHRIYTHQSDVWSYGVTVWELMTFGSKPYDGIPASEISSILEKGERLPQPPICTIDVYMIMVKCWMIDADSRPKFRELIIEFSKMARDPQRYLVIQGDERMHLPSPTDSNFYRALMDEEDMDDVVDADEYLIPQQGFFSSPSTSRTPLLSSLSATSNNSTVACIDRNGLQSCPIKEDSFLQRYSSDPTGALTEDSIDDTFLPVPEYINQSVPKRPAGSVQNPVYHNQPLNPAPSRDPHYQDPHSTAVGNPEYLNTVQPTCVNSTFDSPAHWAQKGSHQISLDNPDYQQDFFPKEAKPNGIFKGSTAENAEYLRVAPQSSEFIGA

NEK4 = NEK4 (Homo sapiens, UniProt P51957)
HUNK = HUNK (Homo sapiens, UniProt P57058)
ICK = biological target: T3, ICK (Homo sapiens, UniProt Q9UPZ9)
T3 construct: gene CILK1

[2] = biological target: EGFR(L747-S752del, P753S) (Homo sapiens, UniProt P00533, DEL747-752/P753S)
TNNI3K = TNNI3K (Homo sapiens, UniProt Q59H18)
FLT3(D835H) = FLT3(D835H) (Homo sapiens, UniProt P36888, D835H)
AURKB = AURKB (Homo sapiens, UniProt Q96GD4)
Chain of AURKB (Q96GD4 whole entry): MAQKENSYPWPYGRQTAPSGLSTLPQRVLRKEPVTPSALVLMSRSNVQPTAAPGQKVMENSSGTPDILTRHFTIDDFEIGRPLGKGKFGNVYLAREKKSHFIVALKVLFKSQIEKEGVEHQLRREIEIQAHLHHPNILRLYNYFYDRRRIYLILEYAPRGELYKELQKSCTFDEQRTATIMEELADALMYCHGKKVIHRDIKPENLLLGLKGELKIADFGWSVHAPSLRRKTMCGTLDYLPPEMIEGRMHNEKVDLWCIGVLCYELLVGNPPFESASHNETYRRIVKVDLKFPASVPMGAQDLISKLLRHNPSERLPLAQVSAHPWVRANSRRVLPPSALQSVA

PIK3CA(E545K) = PIK3CA(E545K) (Homo sapiens, UniProt P42336, E545K)
Chain of PIK3CA(E545K) (P42336 whole entry E545K): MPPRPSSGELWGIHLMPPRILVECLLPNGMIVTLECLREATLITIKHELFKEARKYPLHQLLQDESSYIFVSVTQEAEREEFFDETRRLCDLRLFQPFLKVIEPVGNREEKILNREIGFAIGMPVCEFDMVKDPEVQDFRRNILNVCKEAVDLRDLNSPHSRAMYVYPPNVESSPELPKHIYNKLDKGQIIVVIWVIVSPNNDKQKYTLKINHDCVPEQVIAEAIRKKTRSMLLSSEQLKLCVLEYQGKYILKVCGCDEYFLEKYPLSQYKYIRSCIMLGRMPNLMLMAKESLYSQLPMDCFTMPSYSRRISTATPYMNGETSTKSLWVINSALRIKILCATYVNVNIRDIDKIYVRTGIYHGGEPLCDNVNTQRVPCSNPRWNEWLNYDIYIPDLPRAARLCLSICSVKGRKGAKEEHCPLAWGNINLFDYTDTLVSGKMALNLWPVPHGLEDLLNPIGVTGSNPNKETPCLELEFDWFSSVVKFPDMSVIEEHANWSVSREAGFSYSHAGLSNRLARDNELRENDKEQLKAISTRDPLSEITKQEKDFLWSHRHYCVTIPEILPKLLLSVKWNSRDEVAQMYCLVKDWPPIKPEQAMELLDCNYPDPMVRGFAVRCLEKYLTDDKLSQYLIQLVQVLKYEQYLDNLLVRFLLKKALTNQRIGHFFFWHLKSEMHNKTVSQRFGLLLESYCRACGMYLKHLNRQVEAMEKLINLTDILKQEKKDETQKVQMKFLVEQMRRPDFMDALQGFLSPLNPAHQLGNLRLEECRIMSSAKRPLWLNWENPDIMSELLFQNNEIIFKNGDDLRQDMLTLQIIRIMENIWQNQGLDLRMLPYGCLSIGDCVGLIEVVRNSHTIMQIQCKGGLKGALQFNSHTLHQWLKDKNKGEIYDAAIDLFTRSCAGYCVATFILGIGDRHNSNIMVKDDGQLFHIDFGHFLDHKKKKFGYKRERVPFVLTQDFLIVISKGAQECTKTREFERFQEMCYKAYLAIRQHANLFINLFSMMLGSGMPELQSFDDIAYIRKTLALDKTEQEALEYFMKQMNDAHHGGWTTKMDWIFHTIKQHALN

MERTK = MERTK (Homo sapiens, UniProt Q12866)
Chain of MERTK (Q12866 whole entry): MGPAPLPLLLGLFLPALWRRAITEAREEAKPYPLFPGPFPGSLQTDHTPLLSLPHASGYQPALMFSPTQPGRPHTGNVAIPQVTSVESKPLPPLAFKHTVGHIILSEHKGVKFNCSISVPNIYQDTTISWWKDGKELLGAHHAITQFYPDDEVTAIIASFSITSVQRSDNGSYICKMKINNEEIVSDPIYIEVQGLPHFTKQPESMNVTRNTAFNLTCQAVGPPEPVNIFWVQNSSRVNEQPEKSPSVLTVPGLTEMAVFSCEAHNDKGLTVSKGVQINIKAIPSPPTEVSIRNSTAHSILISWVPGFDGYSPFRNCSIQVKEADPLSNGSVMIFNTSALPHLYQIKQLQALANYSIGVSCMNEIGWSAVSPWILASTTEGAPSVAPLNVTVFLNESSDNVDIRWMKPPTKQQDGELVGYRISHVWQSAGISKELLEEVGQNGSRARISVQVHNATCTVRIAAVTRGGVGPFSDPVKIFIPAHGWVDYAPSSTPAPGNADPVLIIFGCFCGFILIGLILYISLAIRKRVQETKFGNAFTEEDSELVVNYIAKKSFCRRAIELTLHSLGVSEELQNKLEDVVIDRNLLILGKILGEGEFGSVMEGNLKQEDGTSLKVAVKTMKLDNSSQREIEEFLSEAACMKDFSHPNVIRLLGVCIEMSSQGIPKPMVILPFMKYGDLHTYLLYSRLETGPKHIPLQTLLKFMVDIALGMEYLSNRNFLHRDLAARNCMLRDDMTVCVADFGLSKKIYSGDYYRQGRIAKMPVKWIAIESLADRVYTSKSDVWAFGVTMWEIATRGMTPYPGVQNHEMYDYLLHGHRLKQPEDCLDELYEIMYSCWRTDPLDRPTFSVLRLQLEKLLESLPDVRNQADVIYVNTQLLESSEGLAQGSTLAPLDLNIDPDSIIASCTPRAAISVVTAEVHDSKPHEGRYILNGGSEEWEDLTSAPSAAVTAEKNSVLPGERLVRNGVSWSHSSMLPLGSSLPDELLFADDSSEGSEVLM

FYN = FYN (Homo sapiens, UniProt P06241)
Chain of FYN (P06241 whole entry): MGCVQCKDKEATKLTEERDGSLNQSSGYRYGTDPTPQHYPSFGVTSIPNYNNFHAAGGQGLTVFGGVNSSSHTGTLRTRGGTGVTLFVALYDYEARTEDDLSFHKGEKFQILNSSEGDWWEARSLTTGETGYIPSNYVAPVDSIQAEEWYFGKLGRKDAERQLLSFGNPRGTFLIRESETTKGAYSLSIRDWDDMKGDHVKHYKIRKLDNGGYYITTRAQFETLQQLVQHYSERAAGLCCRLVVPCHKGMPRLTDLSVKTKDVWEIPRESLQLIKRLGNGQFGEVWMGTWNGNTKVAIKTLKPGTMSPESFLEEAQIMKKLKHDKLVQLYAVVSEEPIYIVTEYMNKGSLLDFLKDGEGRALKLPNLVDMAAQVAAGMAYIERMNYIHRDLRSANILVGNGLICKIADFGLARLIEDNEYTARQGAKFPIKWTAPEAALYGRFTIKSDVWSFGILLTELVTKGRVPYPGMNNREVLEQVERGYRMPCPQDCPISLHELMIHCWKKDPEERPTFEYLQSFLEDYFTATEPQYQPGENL

SYK = SYK (Homo sapiens, UniProt P43405)
[3] = biological target: T4, ABL1(Q252H)-nonphosphorylated (Homo sapiens, UniProt P00519, Q252H)
T4 construct: nonphosphorylated

## Cc1ccc(NC(=O)c2cccc(C(F)(F)F)c2)cc1Nc1cc(-c2cccnc2)nc2[nH]ccc12 [HZX-02-059]
SNRK
  remaining binding at 1 µM: 71%
MRCKA
  remaining binding at 1 µM: 88%
RET(V804M)
  remaining binding at 1 µM: 95%
SRMS
  remaining binding at 1 µM: 100%
CAMK2A
  remaining binding at 1 µM: 98%
HIPK1
  remaining binding at 1 µM: 74%
NEK6
  remaining binding at 1 µM: 98%
MARK2
  remaining binding at 1 µM: 78%
PRKR
  remaining binding at 1 µM: 95%
RIPK2
  remaining binding at 1 µM: 100%
PRKCE
  remaining binding at 1 µM: 96%
[1]
  remaining binding at 1 µM: 77%
NEK4
  remaining binding at 1 µM: 86%
HUNK
  remaining binding at 1 µM: 91%
ICK
  remaining binding at 1 µM: 77%
[2]
  remaining binding at 1 µM: 80%
TNNI3K
  remaining binding at 1 µM: 6.3%
FLT3(D835H)
  remaining binding at 1 µM: 92%
AURKB
  remaining binding at 1 µM: 100%
PIK3CA(E545K)
  remaining binding at 1 µM: 63%
MERTK
  remaining binding at 1 µM: 86%
FYN
  remaining binding at 1 µM: 85%
SYK
  remaining binding at 1 µM: 100%
[3]
  remaining binding at 1 µM: 30%
